The experiment deals with Patients with vision loss. Kind of experiment: Clinical evaluation of vision improvement (OSDI vision assessment). The format is in vivo. To be noted: for course of OSDI vision improvement over the follow-up: follow-up at two weeks, one month, six weeks and 3 months; for vision, change from baseline as assessed by the OSDI vision assessment: twice a week on the lower eyelid of both eyes, FIGS. 2A-2C. How it is done: Patients with vision loss were treated with control (N=26) or a drug formulation comprising 0.1% selenium disulfide (n=9), 0.5% selenium disulfide (n=26), or 1% selenium disulfide (n=34). Treatment consisted of twice a week application of the drug product on the lower eyelid of both eyes. Patients were followed up and their vision was assessed with an Ocular Surface Disease Index (OSDI) vision assessment after two weeks, one month, six weeks, and 3 months.

selenium disulfide: the “course of OSDI vision improvement over the follow-up” value is reported as “continued improvement from 2 weeks to three months” (0.5% selenium disulfide) and “continued improvement from 2 weeks to three months” (1% selenium disulfide). For the same substance, the “vision, change from baseline as assessed by the OSDI vision assessment” value reads like this: (drug formulation comprising 0.5% selenium disulfide) “improvement in vision”; (drug formulation comprising 1% selenium disulfide) “improvement in vision”.

The values are drawn from US20240285679A1, “COMPOSITIONS AND METHODS FOR VISION IMPROVEMENT” (Azura Ophthalmics Ltd., priority 2021, published 2024).
